From US20030232383A1, “Novel reagentless sensing system for measuring carbohydrates based on the galactose/glucose binding protein” (priority 2001, published 2003)
Where two headings read alike, the source gives them in different places.

Columns and labels:
[1] = molecular target: GBP labeled with D-22 (Escherichia coli, UniProt P0AEE5); assay: Steady-state fluorescence of D-22-labeled (dansylated) GBP; format: binding, E. coli; conditions: addition of 1.6×10^−4 M sugar; protein to fluorophore 1:50, 1:100, 1:200
Chain of GBP labeled with D-22 (P0AEE5 24-332 limits assumed): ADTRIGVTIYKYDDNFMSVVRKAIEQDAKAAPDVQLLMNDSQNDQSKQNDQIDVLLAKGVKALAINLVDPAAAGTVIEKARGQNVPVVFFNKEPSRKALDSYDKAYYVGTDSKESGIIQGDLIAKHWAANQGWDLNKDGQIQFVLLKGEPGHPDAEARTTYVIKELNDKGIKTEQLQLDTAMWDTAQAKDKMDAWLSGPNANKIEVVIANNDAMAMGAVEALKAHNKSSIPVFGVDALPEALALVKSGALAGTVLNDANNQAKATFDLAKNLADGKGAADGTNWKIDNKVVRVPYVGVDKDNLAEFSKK
Method: Labeling GBP with D-22. GBP was dialysed three times against 0.1 M NaHCO3, pH 9.0. Three conjugation reactions with protein to fluorophore mole ratios of 1:50, 1:100, and 1:200 were carried out. Three microvials, each containing GBP, were placed in an ice bath. The fluorophore was added to the vials in small increments while the solution was being stirred. The mixture was allowed to react in the dark at 4° C. for 1 h. To eliminate the excess of unbound D-22, size exclusion chromatography was employed. A D-Salt Polyacrylamide 6000 desalting column was equilibrated with 10 mM Tris-HCl, pH 8.0. The conjugates were loaded onto the column. Elution of the labeled protein was conducted with the equilibration buffer and the conjugate finally dialysed three times against 10 mM Tris-HCl, pH 8.0.
Steady-state fluorescence studies of the labeled GBP. Fluorescence measurements were conducted with sample volumes of 1.5 mL and in quartz cuvettes. After the addition of 30 μL of D-(+)-galactose and D-(+)-glucose to the conjugate, the solution was allowed to incubate for 15 min at 4° C. while mixing at 400 rpm. The excitation and emission monochromator slit widths were set at 2 mm. The excitation wavelength was 350 nm and emission was detected at 475 nm.

[2] = molecular target: GBP (Escherichia coli, UniProt P0AEE5); conditions: Miller et al. 1983; read-out: dissociation constants, Kd; cited from earlier work
Chain of GBP (P0AEE5 24-332): as the sequence (P0AEE5 24-332 limits assumed) above

[3] = molecular target: GBP mutant M182C (Met182Cys) (Escherichia coli, UniProt P0AEE5, M205C); assay: Steady-state fluorescence of fluorophore-labeled GBP mutant M182C on ligand binding; design: species or system E. coli
Chain of GBP mutant M182C (Met182Cys) (P0AEE5 24-332 M205C): as the sequence (P0AEE5 24-332 limits assumed) above, with M182C counted along it
Method: Labeling the mutants of GBP with fluorescent probes. The mutant protein was first dialysed three times against either 10 mM Tris-HCl, 1 mM DTT, 0.2 mM CaCl2, pH 8.0 (for reaction with MDCC) or 10 mM HEPES, 1 mM DTT, 0.2 mM CaCl2, pH 7.4 (for reaction with acrylodan, 1,5-IAEDANS, or IANBD ester). DTT was present in the buffers to reduce any disulfide linkages that may have formed between two protein molecules. The protein was then dialysed three times against the respective buffers (with no DTT) to remove excess of the reducing agent. For the conjugation reaction, a molar ratio of fluorophore to protein of 5:1 was employed. The fluorophores were added slowly to the mutants of GBP (μM concentrations) so as to allow the cysteine residue on all the protein molecules to have an equal opportunity to react with the fluorophore. The solution was stirred constantly in a glass reaction vessel and in the dark for 4 h at 4° C. […]
Steady-state fluorescence studies of the fluorophore-labeled mutant proteins. […] The concentrations of labeled proteins used in the steady-state fluorescence studies were in the 1×10^−7 M range. […] The samples were analyzed in the spectrofluorometer under the aforementioned parameters. Calibration plots were obtained by relating the average fluorescence change with the concentration of glucose or galactose in the sample.

[4] = molecular target: GBP mutant G148C (Gly148Cys) (Escherichia coli, UniProt P0AEE5, G171C); format: binding, E. coli
Chain of GBP mutant G148C (Gly148Cys) (P0AEE5 24-332 G171C limits assumed): as the sequence (P0AEE5 24-332 limits assumed) above, with G148C counted along it
Method: (§1) Labeling the mutants of GBP with fluorescent probes. The mutant protein was first dialysed three times against either 10 mM Tris-HCl, 1 mM DTT, 0.2 mM CaCl2, pH 8.0 (for reaction with MDCC) or 10 mM HEPES, 1 mM DTT, 0.2 mM CaCl2, pH 7.4 (for reaction with acrylodan, 1,5-IAEDANS, or IANBD ester). DTT was present in the buffers to reduce any disulfide linkages that may have formed between two protein molecules. The protein was then dialysed three times against the respective buffers (with no DTT) to remove excess of the reducing agent. For the conjugation reaction, a molar ratio of fluorophore to protein of 5:1 was employed. The fluorophores were added slowly to the mutants of GBP (μM concentrations) so as to allow the cysteine residue on all the protein molecules to have an equal opportunity to react with the fluorophore. The solution was stirred constantly in a glass reaction vessel and in the dark for 4 h at 4° C. (with MDCC and acrylodan) or for 2-3 h at RT (with 1,5-IAEDANS or IANBD ester). The conjugated protein was separated from the free fluorophore by running the sample through a Sephadex G-25 column and eluting with the respective buffer.
(§2) Steady-state fluorescence studies of the fluorophore-labeled mutant proteins. The excitation and emission monochromator slit widths were both set at 2 mm. The excitation and emission wavelengths for MDCC, acrylodan, 1,5-IAEDANS, and IANBD ester were 425 nm and 475 nm, 382 nm and 509 nm, 336 nm and 490 nm, and 472 nm and 536 nm, respectively. All data were obtained at RT using quartz cuvettes with sample volumes of 1.5-2 mL. The concentrations of labeled proteins used in the steady-state fluorescence studies were in the 1×10^−7 M range. The conjugates were incubated with various concentrations of glucose and galactose for 15-20 min at RT on a shaker at 400 rpm. The samples were analyzed in the spectrofluorometer under the aforementioned parameters. Calibration plots were obtained by relating the average fluorescence change with the concentration of glucose or galactose in the sample.

[5] = molecular target: GBP mutant H152C (His152Cys) (Escherichia coli, UniProt P0AEE5, H175C); format: binding, E. coli
Chain of GBP mutant H152C (His152Cys) (P0AEE5 24-332 H175C limits assumed): as the sequence (P0AEE5 24-332 limits assumed) above, with H152C counted along it
Method: as §1, §2

[6] = molecular target: calcium binding site of GBP (Escherichia coli, UniProt P0AEE5); conditions: Vyas et al. 1989, cited from earlier work
Chain of calcium binding site of GBP (P0AEE5 24-332 limits assumed): as the sequence (P0AEE5 24-332 limits assumed) above

In the case of `O=C[C@H](O)[C@@H](O)[C@@H](O)[C@H](O)CO` [Galactose, D-(+)-galactose], the “change of fluorescence signal of dansylated GBP” value [1] is given as “quenching of the fluorescence signal”, the Kd [2] is given as 400 µM and the “% quenching” value ([3]; M182C labeled with Acrylodan) is given as 5%. For the same compound, the “% quenching” value ([3]; M182C labeled with MDCC) was 6%, the “% quenching” value ([4]; G148C labeled with IAEDANS) was 7% and the “% quenching” value ([4]; G148C labeled with MDCC) was 16%. For the same compound, the “% quenching” value ([5]; H152C labeled with IANBD) was 4% and the “% quenching” value ([5]; H152C labeled with MDCC) was 19%.

In the case of `[Ca+2]` [calcium], the Kd ([6]; read-out: dissociation constant) is given as 2 µM.

In the case of `[Tb+3]` [terbium], the dissociation rate [6] is given as 0.001 s⁻¹.
